Data set [1] in a line: Liver microsomal stability, mouse. Format: in vitro ADME. To be noted: 1 µM compound; 0.5 mg/mL microsomes; NADPH; 30 minutes at 37°C. How it is done: Liver microsomal stability by the compounds prepared according to Examples 1 to 46 was confirmed. Specifically, four types of liver microsomes (human, dog, rat, and mouse each at 0.5 mg/mL), 0.1 M phosphate buffer solution (pH 7.4), and the compounds at 1 µM concentration were added and pre-incubated at 37°C for 5 minutes, and then NADPH generation system solution was added and incubated at 37°C for an additional 30 minutes. Thereafter, an acetonitrile solution containing an internal standard (chloropropamide) was added to terminate the reaction, and after centrifugation for 5 minutes (14,000 rpm, 4°C), the supernatant was injected into an LC-MS/MS system to analyze the substrate drug, thereby evaluating the metabolic stability of 8 compounds.
The amount of remaining substrate through the reaction was analyzed using a Shimadzu Nexera XR system and TSQ vantage (Thermo). A Kinetex XB-C18 (2.1 × 100 mm, 2.6 µm, particle size; Phenomenex, USA) was used as the HPLC column, and (A) distilled water containing 0.1% formic acid and (B) acetonitrile containing 0.1% formic acid were used as mobile phases. Analyst software (version 1.6.3) and Xcalibur (version 1.6.1) were used for data analysis. The calculated results are shown in Table 5 below: Liver microsomal stability data of novel compounds from […] (human, rat, and mouse).

For a further data set, the target named is T1, TDP-43 protein (Homo sapiens, UniProt Q13148).
T1 construct: BiFC fluorescent-protein fragments (two complementary halves); expressed in transfected cells
The data set can be described thus: TDP-43 aggregation inhibition in TDP-43-BiFC cell model (Forskolin-induced). It counts as cell-based. Particulars: for inhibition at 3 µM: read-out: TDP-43 protein aggregation inhibitory effect: Aggregation inhibitory effect (%) (@3 uM). How it is done:
To screen for new TDP-43 aggregation inhibitors, a TDP-43-BiFC cell model that facilitates observation of TDP-43 aggregate formation in living cells was used. Specifically, TDP-43-BiFC cells were dispensed into a 384-well plate, and the next day, the compounds prepared according to Examples 1 to 46 were treated at concentrations of 3 and 10 µM, respectively, together with Forskolin (treatment concentration 30 µM), which is a compound that induces TDP-43 aggregation by activating the phosphorylation enzyme PKA. After 48 hours, nuclei within cells were stained using Hoechst (treatment concentration 1 µg/mL), and BiFC fluorescence intensity was automatically quantified using Operetta (PerkinElmer) to count the stained nuclei in each well from the entire plate. The group treated only with Forskolin, which induces TDP-43 aggregation, was set as the reference point with 100% TDP-43 aggregation state, and the effect was confirmed by the formula "(BiFC fluorescence intensity by the compounds synthesized according to the Examples of the disclosure - fluorescence intensity of the untreated control group)/(fluorescence intensity of the control group treated only with Forskolin that induces TDP-43 aggregation - fluorescence intensity of the untreated control group) × 100". In addition, the degree of cytotoxicity induced by the newly synthesized compounds was also calculated using the formula "(number of stained nuclei in the compound-treated group/number of stained nuclei in the Forskolin-treated group) × 100", with the group treated only with Forskolin as the reference point at 100% viability. From the treatment results, substances that inhibit intracellular TDP-43 aggregation were identified through screening from a series of candidates based on the criteria of 80% or more TDP-43 aggregation inhibition and 60% cell viability at a compound treatment concentration of 3 µM.
Furthermore, to confirm the TDP-43 aggregation inhibitory effect according to the concentration of the compounds screened in Experimental Example 3, the screened compounds were treated to […] at concentrations of 0.003, 0.01, 0.03, 0.1, 0.3, 1, 3, and 10 µM, respectively, together with Forskolin (treatment concentration 30 µM), which is a TDP-43 aggregation-inducing substance. After 48 hours, cell images were examined to analyze the TDP-43 aggregation reaction and degree of cytotoxicity. The IC50 and toxicity of the compounds were analyzed by nonlinear regression analysis using Prism software (GraphPad). The calculated results for representative compounds are shown in Table 4 below: TDP-43 protein aggregation inhibitory effect and cell viability of novel compounds.

pIC50: −log10 of the molar value.

T1 sequence (Q13148 whole entry, the tested form may be a part): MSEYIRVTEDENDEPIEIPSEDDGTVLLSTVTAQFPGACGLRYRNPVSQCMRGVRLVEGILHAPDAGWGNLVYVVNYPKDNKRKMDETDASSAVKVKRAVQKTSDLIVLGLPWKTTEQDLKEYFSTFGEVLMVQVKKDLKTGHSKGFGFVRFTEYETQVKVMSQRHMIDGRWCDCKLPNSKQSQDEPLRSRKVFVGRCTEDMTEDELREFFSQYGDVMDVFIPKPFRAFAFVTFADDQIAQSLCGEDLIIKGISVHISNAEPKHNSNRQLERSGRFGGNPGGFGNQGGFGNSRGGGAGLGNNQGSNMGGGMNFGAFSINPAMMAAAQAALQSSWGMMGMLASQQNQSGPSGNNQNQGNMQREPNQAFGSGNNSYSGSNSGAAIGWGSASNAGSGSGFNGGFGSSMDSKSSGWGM

Consider `N#CC(C#N)=NNc1ccc2sc(N3CCOCC3)nc2c1` [Compound 1, (2-morpholinobenzo[d]thiazol-5-yl)carbonohydrazonoyl dicyanide], for which the “Mouse microsomes (% remaining)” value in data set [1] is listed as 49.3 % remaining. For the same molecule, at TDP-43 protein, the inhibition at 3 µM turned out to be 78.1%.
For the molecule `N#CC(C#N)=NNc1ccc2nc(N3CCOCC3)sc2c1` [Compound 2, (2-morpholinobenzo[d]thiazol-6-yl)carbonohydrazonoyl dicyanide], in data set [1], the “Mouse microsomes (% remaining)” value was found to be 94.10 % remaining. The inhibition at 3 µM at TDP-43 protein amounted to 100%.
For `N#CC(C#N)=NNc1ccc2oc(N3CCOCC3)nc2c1` [Compound 3, (2-morpholinobenzo[d]oxazol-5-yl)carbonohydrazonoyl dicyanide], the “Mouse microsomes (% remaining)” value in data set [1] is on record as 80.6 % remaining. At TDP-43 protein, the inhibition at 3 µM stood at 79.6%.
On to `N#CC(C#N)=NNc1ccc2nc(N3CCOCC3)oc2c1` [Compound 4, (2-morpholinobenzo[d]oxazol-6-yl)carbonohydrazonoyl dicyanide], for which, in data set [1], the “Mouse microsomes (% remaining)” value was found to be 98.5 % remaining. At TDP-43 protein, the inhibition at 3 µM turned out to be 100%.
Taken in the same sequence, the figures for `Cn1c(N2CCOCC2)nc2ccc(NN=C(C#N)C#N)cc21` [Compound 5, (1-methyl-2-morpholino-1H-benzo[d]imidazol-6-yl)carbonohydrazonoyl dicyanide] were 91.9 % remaining and 94.7%.
With `CN1CCN(c2nc3ccc(NN=C(C#N)C#N)cc3s2)CC1` [Compound 8, (2-(4-methylpiperazin-1-yl)benzo[d]thiazol-6-yl)carbonohydrazonoyl dicyanide], the “Mouse microsomes (% remaining)” value in data set [1] is on record as 77.4 % remaining. Further, the inhibition at 3 µM on TDP-43 protein was 100%.
Regarding `COC1CCN(c2nc3ccc(NN=C(C#N)C#N)cc3s2)CC1` [Compound 9, (2-(4-methoxypiperidin-1-yl)benzo[d]thiazol-6-yl)carbonohydrazonoyl dicyanide], the “Mouse microsomes (% remaining)” value in data set [1] was determined as 83.8 % remaining. For the same molecule, on TDP-43 protein, the inhibition at 3 µM was 100%.
`CC1CN(c2nc3ccc(NN=C(C#N)C#N)cc3s2)CC(C)O1` (centres unmarked) [Compound 10, (2-(2,6-dimethylmorpholino)benzo[d]thiazol-6-yl)carbonohydrazonoyl dicyanide]: in data set [1], the “Mouse microsomes (% remaining)” value was found to be 87.3 % remaining. The inhibition at 3 µM on TDP-43 protein worked out at 100%.
Taken in the same sequence, the figures for `N#CC(C#N)=NNc1ccc2nc(N3C4CCC3COC4)sc2c1` [Compound 11, (2-(3-oxa-8-azabicyclo[3.2.1]octan-8-yl)benzo[d]thiazol-6-yl)carbonohydrazonoyl dicyanide] were 87.8 % remaining and 100%.
Taken in the same sequence, the figures for `CC1CN(c2nc3ccc(NN=C(C#N)C#N)cc3s2)CCO1` (centres unmarked) [Compound 12, (2-(2-methylmorpholino)benzo[d]thiazol-6-yl)carbonohydrazonoyl dicyanide] were 85.1 % remaining and 100%.
For the molecule `CC1COCCN1c1nc2ccc(NN=C(C#N)C#N)cc2s1` (centres unmarked) [Compound 13, (2-(3-methylmorpholino)benzo[d]thiazol-6-yl)carbonohydrazonoyl dicyanide], the “Mouse microsomes (% remaining)” value in data set [1] is on record as 84.8 % remaining. The inhibition at 3 µM on TDP-43 protein turned out to be 100%.
Take `CN1CCN(c2nc3ccc(NN=C(C#N)C#N)cc3o2)CC1` [Compound 14, (2-(4-methylpiperazin-1-yl)benzo[d]oxazol-6-yl)carbonohydrazonoyl dicyanide]: the inhibition at 3 µM at TDP-43 protein was 100%.
For `CC1CN(c2nc3ccc(NN=C(C#N)C#N)cc3o2)CCO1` (centres unmarked) [Compound 15, (2-(2-methylmorpholino)benzo[d]oxazol-6-yl)carbonohydrazonoyl dicyanide], the “Mouse microsomes (% remaining)” value in data set [1] is above 100 % remaining. For the same molecule, the inhibition at 3 µM on TDP-43 protein is 97.5%.
Taken in the same sequence, the figures for `COC1CCN(c2nc3ccc(NN=C(C#N)C#N)cc3o2)CC1` [Compound 17, (2-(4-methoxypiperidin-1-yl)benzo[d]oxazol-6-yl)carbonohydrazonoyl dicyanide] were above 100 % remaining and 100%.
Taken in the same sequence, the figures for `CC1CN(c2nc3ccc(NN=C(C#N)C#N)cc3o2)CC(C)O1` (centres unmarked) [Compound 18, (2-(2,6-dimethylmorpholino)benzo[d]oxazol-6-yl)carbonohydrazonoyl dicyanide] were 86.2 % remaining and 98.6%.
On to `N#CC(C#N)=NNc1ccc2nc(N3CC4CCC(C3)O4)sc2c1` [Compound 23, (2-(8-oxa-3-azabicyclo[3.2.1]octan-3-yl)benzo[d]thiazol-6-yl)carbonohydrazonoyl dicyanide], for which the “Mouse microsomes (% remaining)” value in data set [1] is 86.6 % remaining. For the same molecule, at TDP-43 protein, the negative logarithm of the IC50 (pIC50) is 6.97 and the inhibition at 3 µM was determined as 99.2%.
Turning to `N#CC(C#N)=NNc1ccc2nc(N3CCNCC3)sc2c1` [Compound 24, (2-(piperazin-1-yl)benzo[d]thiazol-6-yl)carbonohydrazonoyl dicyanide], on TDP-43 protein, the negative-log IC50 (pIC50) was 7.28 and the inhibition at 3 µM is 97.9%.
With `N#CC(C#N)=NNc1ccc2nc(N3CCNCC3)oc2c1` [Compound 25, (2-(piperazin-1-yl)benzo[d]oxazol-6-yl)carbonohydrazonoyl dicyanide], at TDP-43 protein, the pIC50 was 7.28 and the inhibition at 3 µM was found to be 98.2%.
With `N#CC(C#N)=NNc1ccc2nc(N3CC4CCC(C3)O4)oc2c1` [Compound 26, (2-(8-oxa-3-azabicyclo[3.2.1]octan-3-yl)benzo[d]oxazol-6-yl)carbonohydrazonoyl dicyanide], the “Mouse microsomes (% remaining)” value in data set [1] was found to be 99 % remaining. At TDP-43 protein, the pIC50 was 6.61 and the inhibition at 3 µM turned out to be 94.8%.
Turning to `CC(C)N1CCN(c2nc3ccc(NN=C(C#N)C#N)cc3s2)CC1` [Compound 27, (2-(4-isopropylpiperazin-1-yl)benzo[d]thiazol-6-yl)carbonohydrazonoyl dicyanide], the inhibition at 3 µM at TDP-43 protein was determined as 48.2%.
Take `CC(C)N1CCN(c2nc3ccc(NN=C(C#N)C#N)cc3o2)CC1` [Compound 28, (2-(4-isopropylpiperazin-1-yl)benzo[d]oxazol-6-yl)carbonohydrazonoyl dicyanide]: the “Mouse microsomes (% remaining)” value in data set [1] worked out at 81.8 % remaining. Moreover, the inhibition at 3 µM at TDP-43 protein is 57.1%.
For `CC(=O)N1CCN(c2nc3ccc(NN=C(C#N)C#N)cc3s2)CC1` [Compound 30, (2-(4-acetylpiperazin-1-yl)benzo[d]thiazol-6-yl)carbonohydrazonoyl dicyanide], in data set [1], the “Mouse microsomes (% remaining)” value worked out at 83.8 % remaining. Besides, at TDP-43 protein, the pIC50 is 6.84 and the inhibition at 3 µM stood at 88%.
`CC(=O)N1CCN(c2nc3ccc(NN=C(C#N)C#N)cc3o2)CC1` [Compound 31, (2-(4-acetylpiperazin-1-yl)benzo[d]oxazol-6-yl)carbonohydrazonoyl dicyanide]: the “Mouse microsomes (% remaining)” value in data set [1] is listed as above 100 % remaining. Besides, the inhibition at 3 µM at TDP-43 protein stood at 41.4%.
As for `CCn1c(N2CCOCC2)nc2ccc(NN=C(C#N)C#N)cc21` [Compound 32, (1-ethyl-2-morpholino-1H-benzo[d]imidazol-6-yl)carbonohydrazonoyl dicyanide], the “Mouse microsomes (% remaining)” value in data set [1] amounted to 92.3 % remaining. Further, at TDP-43 protein, the pIC50 was 7.00 and the inhibition at 3 µM was 95.4%.
For `CCn1c(N2CCOCC2)nc2cc(NN=C(C#N)C#N)ccc21` [Compound 33, (1-ethyl-2-morpholino-1H-benzo[d]imidazol-5-yl)carbonohydrazonoyl dicyanide] the same measures were 89 % remaining, 6.91 and 93.9%.
